Patent publication US20230364119A1, “AUTOPHAGY ACTIVATOR” (Resonac Corporation, priority 2020, published 2023)

Legend:
Type in all cases: cell-based
LC3 gene [1] = assay: LC3 gene expression promoting effect in human senescent fibroblasts (quantitative real-time PCR)
Experimental: (§1) Senescent fibroblasts were prepared by the following procedure.
(§2) Normal human fibroblasts (NB1RGB, RIKEN BRC Cell Bank) were cultured until confluent in D-MEM medium (manufactured by Sigma-Aldrich) to which 10% fetal bovine serum (manufactured by MP Biomedicals) was added. Thereafter, the cells were treated with 250 μM aqueous hydrogen peroxide for 2 hours, and cultured for 24 hours in D-MEM medium to which fresh 10% fetal bovine serum was added. The treatment with aqueous hydrogen peroxide and the cell culture operation were repeated three times, and the obtained fibroblasts were used as senescent fibroblasts.
(§3) The prepared senescent fibroblasts were prepared at a seeding density of 10000 cells/cm^2 and cultured for 24 hours in D-MEM medium (manufactured by Sigma-Aldrich) to which 10% fetal bovine serum (manufactured by MP Biomedicals) was added. […]
(§4) Then, using Nucleospin (registered trademark) RNA kit (manufactured by Takara Bio Inc.), RNA was extracted from senescent fibroblasts or normal human fibroblasts in each example, and cDNA was synthesized from the obtained RNA. Next, using this cDNA as a template, by quantitative real-time PCR, the expression level of each gene was quantified using primers (manufactured by Takara Bio Inc.) specific to the LC3 gene, ATG5 gene, and Beclin 1 gene, respectively. […]

ATG5 gene = ATG5 gene expression promoting effect in human senescent fibroblasts (quantitative real-time PCR)
Experimental: as §1, §2, §3, §4

LC3 gene [2] = assay: LC3 gene expression promoting effect in human neuroblastoma in the presence of amyloid β
Experimental: In the presence of an autophagy activator, the expression levels of the LC3 gene, ATG5 gene, and Beclin 1 gene in human neuroblastoma (SH-SY5Y; obtained from ATCC) were measured by the following test method, and the effect of promoting the expression of the LC3 gene, ATG5 gene, and Beclin 1 gene by an autophagy activator was evaluated.
In the following examples and comparative examples, tests were performed by adding amyloid β, which is known to cause a decrease in autophagy in nerve cells, to each medium.
SH-SY5Y cells were prepared at a seeding density of 10000 cells/cm^2 and cultured for 24 hours in D-MEM medium/Ham's F-12 medium (manufactured by Sigma-Aldrich) to which 10% fetal bovine serum (manufactured by MP Biomedicals) was added. Next, in Example 15, the inositol derivative A dissolved in purified water was added to the medium such that the final concentration of the inositol derivative A was 10-4% (V/V). […]
as §4, with “SH-SY5Y cells” for “senescent fibroblasts or normal human fibroblasts”

[3] = 24 hours, 10^−3% (V/V) inositol or inositol derivative A, with the vitamin derivative of the example where added, GAPDH-standardized, Comparative Example 1 (purified water) = 1.00
[4] = compared to Comparative Example 1 (purified water only)

## O[C@H]1[C@H](O)[C@@H](O)[C@H](O)[C@@H](O)[C@H]1O [Comparative Example 2, myo-inositol]
LC3 gene [1]; [3]
  Relative gene expression level LC3: 0.77
LC3 gene [1]; [4]
  expression level of the LC3 gene, in words: more decreased
ATG5 gene; [3]
  Relative gene expression level ATG5: 1.21
ATG5 gene; [4]
  expression level of the ATG5 gene, in words: more increased
LC3 gene [2]; SH-SY5Y cells with amyloid β, compared to Reference Example 3 (purified water only, no amyloid β)
  expression level of the LC3 gene, in words: slightly increased
LC3 gene [2]; SH-SY5Y cells, 20 μM amyloid β present, 48 hours, 10^−3% (V/V) inositol or inositol derivative A, with the vitamin derivative of the example where added, Reference Example 3 (purified water, no amyloid β) = 1.00
  Relative gene expression level LC3: 1.41
